Data published in patent US7759373B2, “Large conductance calcium-activated K channel opener” (Mitsubishi Tanabe Pharma Corporation, priority 2001, dated 2010).
Where two headings read alike, the source gives them in different places.

Assays:
[1] = tested on: isolated rabbit urinary bladder; assay: Relaxation effect on potassium-induced contraction of isolated rabbit urinary bladder; type: cell-based; conditions: 50% relaxation concentration, high-K+ (30 mM) pre-contracted rabbit bladder strips, relaxation as percentage of the maximum produced by 0.1 mM papaverine, read-out: EC50 value range
Protocol: Relaxation effect on potassium-induced contraction of isolated rabbit urinary bladder
Urinary bladder was isolated from Male NZW rabbits (2.0-3.5 kg) and immersed in ice-cold Krebs-bicarbonate solution (in mM: 118 NaCl, 4.7 KCl, 1.2, 2.5 CaCl2, MgSO4, 1.2 KH2PO4, 11 glucose, 25 NaHCO3). The urinary bladder was cut into longitudinal strips (5 mm length, 3-4 mm width) after mucosal layer was removed. Preparations were mounted in organ baths containing 10 ml of Krebs solution maintained at 37° C. and gassed with 95% O2/5% CO2. Accordingly, preparations were stretched with an initial tension of 2.0±1.0 g, and changes in isometric tension were measured by force-displacement transducer. The preparations were pre-contracted by changing organ-bath solution into high-K^+ (30 mM) Krebs solution (in mM: 92.7 NaCl, 30 KCl, 1.2, 2.5 CaCl2, MgSO4, 1.2 KH2PO4, 11 glucose, 25 NaHCO3).
After stable tension was obtained, compounds were added into organ baths cumulatively (10^−8M-10^−4M). The effects of compounds were expressed as a percentage of the maximum relaxation produced by 0.1 mM papaverine. 50% relaxation concentration (EC50) was calculated and EC50 value range (μM) of the compounds of the present invention was shown in the following Table 64 with a rank of A, B or C. These ranges are as mentioned below. 3≧C≧1≧B≧0.5≧A

[2] = tested on: rhythmic bladder contractions induced by substance P; assay: Inhibitory effect on the rhythmic bladder contractions induced by substance P in anesthetized rats; type: in vivo, rat; conditions: time during which frequency of rhythmic contraction was completely inhibited, 0.25 mg/kg of the compound, substance P infusion
In short: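 Value is duration (min) of complete inhibition of bladder contractions, ranked A/B/C at 20 and 10 min cut-offs. Intravenous dosing (0.5% Tween 80 saline) in female SD rats under urethane, bladder saline-filled and contractions maintained by substance P infusion, 0.33 μg/kg/min.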

O=C(O)/C=C/c1nc(-c2ccc(F)cc2)oc1-c1ccc(Cl)s1 [Preparation Example 626]
EC50 ([1]; Oryctolagus cuniculus): 1000 to 3000 nM | 100% inhibition time range [2]: C (A≧20>B≧10>C (minute))

CCOC(=O)C(N)c1nc(-c2ccc(F)cc2)oc1-c1ccc(Cl)s1 (centres unmarked) [Preparation Example 372, ethyl 2-amino-2-[5-(5-chlorothiophen-2-yl)-2-(4-fluorophenyl)-oxazol-4-yl]acetate]
EC50 ([1]; Oryctolagus cuniculus): 1000 to 3000 nM

Cc1nc2cc(-c3nc(CC(=O)O)c(-c4ccc(Cl)s4)o3)ccc2s1 [Preparation Example 459]
EC50 ([1]; Oryctolagus cuniculus): 1000 to 3000 nM | 100% inhibition time range [2]: C (A≧20>B≧10>C (minute))

CCOc1ccc(-c2nc(-c3ccc(Cl)s3)c(CC(=O)O)s2)cn1 [Preparation Example 586]
EC50 ([1]; Oryctolagus cuniculus): ≤ 500 nM | 100% inhibition time range [2]: B (A≧20>B≧10>C (minute))

CCc1nc(-c2cccc(Cl)c2)[nH]c1-c1cccnc1 [Preparation example 13]
EC50 ([1]; Oryctolagus cuniculus): ≤ 500 nM | 100% inhibition time range [2]: C (A≧20>B≧10>C (minute))

O=C(O)Cc1[nH]c(-c2cc3ccccc3s2)nc1-c1ccc(Cl)cc1 [Preparation Example 355]
EC50 ([1]; Oryctolagus cuniculus): ≤ 500 nM

COc1ccc(-c2nc(-c3ccc(Cl)cc3)c(CC(=O)O)o2)cc1 [Preparation Example 517]
EC50 ([1]; Oryctolagus cuniculus): ≤ 500 nM | 100% inhibition time range [2]: C (A≧20>B≧10>C (minute))

Fc1ccc(-c2nc(CC(F)(F)F)c(-c3ccsc3)[nH]2)cc1 [Preparation Example 173]
EC50 ([1]; Oryctolagus cuniculus): 1000 to 3000 nM

CONC(=O)Cc1nc(-c2ccc(F)cc2)oc1-c1ccsc1 [Preparation Example 373, N-methoxy-[2-(4-fluorophenyl)-5-(3-thienyl)oxazol-4-yl]acetamide]
EC50 ([1]; Oryctolagus cuniculus): 1000 to 3000 nM | 100% inhibition time range [2]: C (A≧20>B≧10>C (minute))

COc1ccc(-c2nc(-c3ccc(Cl)cc3)c(CC(=O)O)s2)cc1 [Preparation Example 575]
EC50 ([1]; Oryctolagus cuniculus): ≤ 500 nM | 100% inhibition time range [2]: B (A≧20>B≧10>C (minute))

CCCc1nc(-c2ccc(F)cc2)[nH]c1-c1cccc(F)c1 [Preparation example 99]
EC50 ([1]; Oryctolagus cuniculus): 500 to 1000 nM | 100% inhibition time range [2]: B (A≧20>B≧10>C (minute))

C[S+]([O-])Cc1[nH]c(-c2ccc(F)cc2)nc1-c1ccccc1 (centres unmarked) [Preparation example 639]
EC50 ([1]; Oryctolagus cuniculus): 1000 to 3000 nM | 100% inhibition time range [2]: C (A≧20>B≧10>C (minute))

CCc1nc(-c2ccc(C#N)s2)[nH]c1-c1cccnc1 [Preparation example 16]
EC50 ([1]; Oryctolagus cuniculus): 1000 to 3000 nM | 100% inhibition time range [2]: B (A≧20>B≧10>C (minute))

O=C(O)Cc1nc(-c2cc3c(s2)CCC3)oc1-c1ccc(Cl)s1 [Preparation Example 479]
EC50 ([1]; Oryctolagus cuniculus): ≤ 500 nM | 100% inhibition time range [2]: C (A≧20>B≧10>C (minute))

Cc1cc(-c2nc(-c3ccc(Cl)s3)c(CC(=O)O)s2)sc1C [Preparation Example 587]
EC50 ([1]; Oryctolagus cuniculus): 500 to 1000 nM | 100% inhibition time range [2]: A (A≧20>B≧10>C (minute))

O=C(O)Cc1nc(-c2nc3ccccc3s2)oc1-c1ccc(Cl)s1 [Preparation Example 446]
EC50 ([1]; Oryctolagus cuniculus): ≤ 500 nM | 100% inhibition time range [2]: C (A≧20>B≧10>C (minute))

O=C([O-])Cc1nc(-c2ccc(F)cc2)oc1-c1ccc(Cl)s1.[Na+] [Preparation Example 152, 5-(5-chloro-thiophen-2-yl)-2-(4-fluorophenyl)oxazol-4-yl acetic acid sodium salt]
EC50 ([1]; Oryctolagus cuniculus): 1000 to 3000 nM | 100% inhibition time range [2]: B (A≧20>B≧10>C (minute))

O=C(O)Cc1nc(-c2ccccc2O)oc1-c1cccs1 [Preparation Example 277]
EC50 ([1]; Oryctolagus cuniculus): 500 to 1000 nM | 100% inhibition time range [2]: C (A≧20>B≧10>C (minute))

O=C(O)Cc1nc(-c2ccc(F)cc2)oc1-c1ccc[nH]1 [Preparation Example 524]
EC50 ([1]; Oryctolagus cuniculus): 1000 to 3000 nM | 100% inhibition time range [2]: B (A≧20>B≧10>C (minute))

O=C(O)Cc1nc(-c2ccc3ccccc3n2)oc1-c1ccc(Cl)s1 [Preparation Example 434]
EC50 ([1]; Oryctolagus cuniculus): 500 to 1000 nM | 100% inhibition time range [2]: B (A≧20>B≧10>C (minute))

Cc1cc(-c2oc(-c3ccc(F)cc3)nc2CC(=O)O)sc1Cl [Preparation Example 257]
EC50 ([1]; Oryctolagus cuniculus): ≤ 500 nM | 100% inhibition time range [2]: B (A≧20>B≧10>C (minute))

CC(C)c1nc(-c2ccc(F)cc2)[nH]c1-c1ccsc1 [Preparation Example 169]
EC50 ([1]; Oryctolagus cuniculus): 1000 to 3000 nM

5-(5-chlorothiophen-2-yl)-2-(4-fluorophenyl)oxazole-4-yl propionic acid sodium salt [Preparation Example 339]
EC50 [1]: 1000 to 3000 nM

CCc1nc(-c2ccc(F)cc2)[nH]c1-c1nccs1 [Preparation example 51]
EC50 ([1]; Oryctolagus cuniculus): ≤ 500 nM

O=C(O)Cc1nc(-c2ccc(Cl)cc2)oc1C1CCCC1 [Preparation Example 265]
EC50 ([1]; Oryctolagus cuniculus): 1000 to 3000 nM

CCCc1nc(-c2cccc3ccccc23)[nH]c1-c1ccccc1 [Preparation example 36]
EC50 ([1]; Oryctolagus cuniculus): 1000 to 3000 nM

CCCc1nc(-c2ccccc2)[nH]c1-c1ccccc1 [Preparation Example 180]
EC50 ([1]; Oryctolagus cuniculus): 1000 to 3000 nM

CCc1nc(-c2ccc(F)cc2)[nH]c1-c1cnccn1 [Preparation example 49]
EC50 ([1]; Oryctolagus cuniculus): 500 to 1000 nM

CCCc1nc(-c2ccsc2)[nH]c1-c1ccccc1 [Preparation example 33]
EC50 ([1]; Oryctolagus cuniculus): ≤ 500 nM

CCc1nc(-c2ccc(F)cc2)[nH]c1-c1cscn1 [Preparation example 52]
EC50 ([1]; Oryctolagus cuniculus): ≤ 500 nM

COCc1nc(-c2ccc(F)cc2)[nH]c1-c1ccccc1 [Preparation example 121]
EC50 ([1]; Oryctolagus cuniculus): 1000 to 3000 nM

COc1ccc(-c2nc(-c3ccsc3)c(CC(=O)O)s2)cc1 [Preparation Example 597]
EC50 ([1]; Oryctolagus cuniculus): ≤ 500 nM

CCCCc1nc(-c2ccc(F)cc2)[nH]c1-c1ccsc1 [Preparation Example 170]
EC50 ([1]; Oryctolagus cuniculus): 1000 to 3000 nM

CCc1nc(-c2ccc(C)nc2)[nH]c1-c1ccsc1 [Preparation example 81]
EC50 ([1]; Oryctolagus cuniculus): 1000 to 3000 nM

CCc1nc(-c2cccc(C#N)c2)[nH]c1-c1cccnc1 [Preparation example 57]
EC50 ([1]; Oryctolagus cuniculus): 1000 to 3000 nM

CCCc1nc(-c2ccccc2[N+](=O)[O-])[nH]c1-c1ccccc1 [Preparation example 39]
EC50 ([1]; Oryctolagus cuniculus): 1000 to 3000 nM

COc1ccc(-c2nc(-c3cccs3)c(CC(=O)O)o2)cc1 [Preparation Example 507]
EC50 ([1]; Oryctolagus cuniculus): ≤ 500 nM

CCCc1nc(-c2ccc[nH]2)[nH]c1-c1ccccc1 [Preparation example 35]
EC50 ([1]; Oryctolagus cuniculus): 1000 to 3000 nM

CCCc1nc(-c2ccccn2)[nH]c1-c1cccs1 [Preparation example 5]
EC50 ([1]; Oryctolagus cuniculus): 1000 to 3000 nM

CCCc1nc(-c2ccc(F)cc2)[nH]c1-c1ccccn1 [Preparation example 97]
EC50 ([1]; Oryctolagus cuniculus): 500 to 1000 nM

CN(C)c1ccc(-c2nc(-c3cccs3)c(CC(=O)O)o2)cn1 [Preparation Example 506]
EC50 ([1]; Oryctolagus cuniculus): 500 to 1000 nM

CSCc1nc(-c2cccc(F)c2)[nH]c1-c1ccccc1 [Preparation example 131]
EC50 ([1]; Oryctolagus cuniculus): 1000 to 3000 nM

CCc1nc(-c2ccc(F)cc2)[nH]c1-c1ccccc1OC [Preparation example 84]
EC50 ([1]; Oryctolagus cuniculus): ≤ 500 nM

CCCc1nc(-c2ccc(F)cc2)[nH]c1-c1cccc(OC)c1 [Preparation example 96]
EC50 ([1]; Oryctolagus cuniculus): 1000 to 3000 nM

CCc1nc(-c2csc(Br)c2)[nH]c1-c1cccnc1 [Preparation example 19]
EC50 ([1]; Oryctolagus cuniculus): ≤ 500 nM

COc1ccc(-c2oc(-c3ccc(F)cc3)nc2CC(=O)O)cc1OC [Preparation Example 160]
100% inhibition time range [2]: C (A≧20>B≧10>C (minute))

2-(4-fluorophenyl)-5-(2-thienyl)oxazole-4-yl propionic acid sodium salt [Preparation Example 338]
100% inhibition time range [2]: C (A≧20>B≧10>C (minute))

CSc1cccc(-c2nc(CC(=O)O)c(-c3ccc(Cl)s3)o2)c1 [Preparation Example 457]
100% inhibition time range [2]: B (A≧20>B≧10>C (minute))

CCc1[nH]c(-c2ccc(F)cc2)nc1-c1cccnc1.Cl.Cl [Preparation example 80, 5-ethyl-2-(4-fluorophenyl)-4-(3-pyridyl)imidazole dihydrochloride]
100% inhibition time range [2]: B (A≧20>B≧10>C (minute))

O=C(O)Cc1sc(-c2cc3ccccc3s2)nc1-c1ccc(Cl)c(F)c1 [Preparation Example 583]
100% inhibition time range [2]: B (A≧20>B≧10>C (minute))

Cc1csc(-c2oc(-c3ccc(F)cc3)nc2CC(=O)O)c1 [Preparation Example 164]
100% inhibition time range [2]: B (A≧20>B≧10>C (minute))

CCCc1nc(-c2cc3ccccc3o2)[nH]c1-c1ccccc1 [Preparation example 38]
EC50 ([1]; Oryctolagus cuniculus): 1000 to 3000 nM

CCSc1ccc(-c2nc(CC(=O)O)c(-c3ccc(Cl)s3)o2)cc1 [Preparation Example 449]
100% inhibition time range [2]: B (A≧20>B≧10>C (minute))

CCCc1nc(-c2ccc(C#N)cc2)[nH]c1-c1ccccc1 [Preparation example 31]
100% inhibition time range [2]: A (A≧20>B≧10>C (minute))

Cc1cc(-c2nc(CC(=O)O)c(-c3ccc(Cl)s3)o2)sc1C [Preparation Example 467]
100% inhibition time range [2]: A (A≧20>B≧10>C (minute))

COc1cc(-c2oc(-c3ccc(F)cc3)nc2CC(=O)O)ccc1O [Preparation Example 293]
100% inhibition time range [2]: C (A≧20>B≧10>C (minute))
